# Reference: ChEMBL document CHEMBL4732047, “New imidazopyridines with phosphodiesterase 4 and 7 inhibitory activity and their efficacy in animal models of inflammatory and autoimmune diseases” (Eur J Med Chem, 2021)
# Activity calls are given as the source filed them. No cut-off for these calls is given here.
# What was measured:
# [1] = target: High affinity 3',5'-cyclic-AMP phosphodiesterase 7A (Homo sapiens, UniProt Q13946); experiment: Inhibition of human recombinant PDE7A using cAMP as substrate incubated for 20 mins measured by Kinase Glo reagent based microplate reader assay
# [2] = target: 3',5'-cyclic-AMP phosphodiesterase 4B (Homo sapiens, UniProt Q07343); experiment: Inhibition of human recombinant PDE4B using cAMP as substrate incubated for 20 mins measured by Kinase Glo reagent based microplate reader assay
# [3] = target: Dual specificity calcium/calmodulin-dependent 3',5'-cyclic nucleotide phosphodiesterase 1B (Homo sapiens, UniProt Q01064); experiment: Inhibition of human recombinant PDE1B using cAMP as substrate incubated for 20 mins measured by Kinase Glo reagent based microplate reader assay
# [4] = Brain to serum concentration ratio in C57BL/6 mouse at 50 mg/kg, ip measured after 5 mins; type: ADME, organism-based
# Mus musculus [5] = experiment: Hepatoprotective activity in ConA-induced BALB/c hepatitis mouse model assessed as decrease in serum IFNgamma level at 50 mg/kg, ip administration and measured after 8 hrs relative to control; type: functional, organism-based
# [6] = Tmax in male Wistar rat at 10 mg/kg, ip; type: ADME, organism-based; conditions: in vivo
# Mus musculus [7] = experiment: Hepatoprotective activity in ConA-induced BALB/c hepatitis mouse model assessed as decrease in serum IL-6 level at 50 mg/kg, ip administration and measured after 8 hrs relative to control; type: functional, organism-based
# [8] = target: cAMP and cAMP-inhibited cGMP 3',5'-cyclic phosphodiesterase 10A (Homo sapiens, UniProt Q9Y233); experiment: Inhibition of human recombinant PDE10A using cAMP as substrate incubated for 20 mins measured by Kinase Glo reagent based microplate reader assay
# [9] = target: cGMP-specific 3',5'-cyclic phosphodiesterase (Homo sapiens, UniProt O76074); experiment: Inhibition of human recombinant PDE5A using cGMP as substrate incubated for 20 mins measured by Kinase Glo reagent based microplate reader assay
# [10] = AUC in male Wistar rat at 10 mg/kg, ip; type: ADME, organism-based; set-up: dose 10 mg/kg; conditions: in vivo
# Mus musculus [11] = experiment: Immunosuppressive activity in MOG (35 to 55 residues) toxin-induced experimental autoimmune encephalomyelitis female C57BL/6 mouse model assessed as reduction in clinical scores at 50 mg/kg, ip administered […] once daily starting from day 1 post immunization and measured 15 days; type: functional, organism-based; conditions: time 15.0 day
# Rattus norvegicus [12] = experiment: Antiinflammatory activity in collagen-induced arthritis Lewis rat model assessed as decrease in paw swelling at 20 mg/kg, ip once daily administered on day 20 after collagen treatment and treated until day 40 by macroscopic observation analysis; type: functional, organism-based
# [13] = Elimination half life in Wistar rat; type: ADME; conditions: in vivo, read-out: beta t1/2
# Rattus norvegicus [14] = experiment: Antiinflammatory activity in LPS-induced Wistar rat endotoxemia model assessed as decrease in plasma TNFalpha level at 20 mg/kg, ip measured after 1.5 hr; type: functional; set-up: scale not given: the % may be the effect or the level left
# [15] = Apparent volume of distribution during terminal phase in male Wistar rat at 10 mg/kg, ip; type: ADME, organism-based; conditions: in vivo, read-out: Vz/F
# Mus musculus [16] = experiment: Immunosuppressive activity in MOG (35 to 55 residues) toxin-induced experimental autoimmune encephalomyelitis C57BL/6 mouse model assessed decrease in macrophages infiltration into spinal cored at 50 mg/kg, ip relative to untreated control; type: functional, organism-based
# [17] = Tmax in female Lewis rat at 10 mg/kg, iv; type: ADME, organism-based; conditions: in vivo
# [18] = Brain to serum concentration ratio in C57BL/6 mouse at 50 mg/kg, ip measured after 60 mins; type: ADME, organism-based
# [19] = target: cGMP-inhibited 3',5'-cyclic phosphodiesterase 3A (Homo sapiens, UniProt Q14432); experiment: Inhibition of human recombinant PDE3A using cAMP as substrate incubated for 20 mins measured by Kinase Glo reagent based microplate reader assay
# [20] = Cmax in male Wistar rat at 10 mg/kg, ip; type: ADME, organism-based; set-up: route intraperitoneal, dose 10 mg/kg; conditions: in vivo
# [21] = Clearance in male Wistar rat at 10 mg/kg, ip; type: ADME, organism-based; conditions: in vivo
# Mus musculus [22] = experiment: Hepatoprotective activity in ConA-induced BALB/c hepatitis mouse model assessed as decrease in serum IFNgamma level at 10 mg/kg, ip administration and measured after 8 hrs relative to control; type: functional, organism-based
# [23] = Elimination half life in female Lewis rat at 10 mg/kg, iv; type: ADME, organism-based; conditions: in vivo, read-out: beta t1/2
# Rattus norvegicus [24] = experiment: Antiinflammatory activity in LPS-induced Wistar rat endotoxemia model assessed as decrease in plasma TNFalpha level at 20 mg/kg, ip measured after 2 hr; type: functional; set-up: scale not given: the % may be the effect or the level left
# [25] = Cmax in female Lewis rat at 10 mg/kg, iv; type: ADME, organism-based; set-up: route intravenous, dose 10 mg/kg; conditions: in vivo
# Mus musculus [26] = experiment: Hepatoprotective activity in ConA-induced BALB/c hepatitis mouse model assessed as decrease in serum IL-6 level at 10 mg/kg, ip administration and measured after 8 hrs relative to control; type: functional, organism-based
# Mus musculus [27] = experiment: Hepatoprotective activity in ConA-induced BALB/c hepatitis mouse model assessed as decrease in serum alanine aminotransferase level at 50 mg/kg, ip administration and measured after 8 hrs relative to control; type: functional, organism-based
# [28] = Selectivity index, ratio of IC50 for inhibition of human recombinant PDE3A to IC50 for inhibition of human recombinant PDE4B
# Rattus norvegicus [29] = experiment: Antiinflammatory activity in LPS-induced Wistar rat endotoxemia model assessed as decrease in plasma TNFalpha level at 20 mg/kg, ip measured after 1 hr; type: functional; set-up: scale not given: the % may be the effect or the level left
# Mus musculus [30] = experiment: Hepatoprotective activity in ConA-induced BALB/c hepatitis mouse model assessed as decrease in serum alanine aminotransferase level at 10 mg/kg, ip administration and measured after 8 hrs relative to control; type: functional, organism-based
# Mus musculus [31] = experiment: Immunosuppressive activity in MOG (35 to 55 residues) toxin-induced experimental autoimmune encephalomyelitis C57BL/6 mouse model assessed as reduction in white matter vacuolation in cerebellum at 50 mg/kg, ip relative to untreated control; type: functional, organism-based
# [32] = Apparent volume of distribution during terminal phase in female Lewis rat at 10 mg/kg, iv; type: ADME, organism-based; conditions: in vivo
# [33] = Selectivity index, ratio of IC50 for inhibition of human recombinant PDE4D to IC50 for inhibition of human recombinant PDE4B
# [34] = Elimination half life in male Wistar rat at 10 mg/kg, ip; type: ADME, organism-based; conditions: in vivo, read-out: beta t1/2
# [35] = target: 3',5'-cyclic-AMP phosphodiesterase 4D (Homo sapiens, UniProt Q08499); experiment: Inhibition of human recombinant PDE4D using cAMP as substrate incubated for 20 mins measured by Kinase Glo reagent based microplate reader assay
# [36] = AUC in female Lewis rat at 10 mg/kg, iv; type: ADME, organism-based; set-up: dose 10 mg/kg; conditions: in vivo
# Mus musculus [37] = experiment: Hepatoprotective activity in ConA-induced BALB/c hepatitis mouse model assessed as decrease in serum aspartate aminotransferase level at 10 mg/kg, ip administration and measured after 8 hrs relative to control; type: functional, organism-based
# [38] = Brain to serum concentration ratio in C57BL/6 mouse at 50 mg/kg, ip measured after 15 mins; type: ADME, organism-based
# [39] = target: cGMP-dependent 3',5'-cyclic phosphodiesterase (Homo sapiens, UniProt O00408); experiment: Inhibition of human recombinant PDE2A using cGMP as substrate incubated for 20 mins measured by Kinase Glo reagent based microplate reader assay
# [40] = Clearance in female Lewis rat at 10 mg/kg, iv; type: ADME, organism-based; conditions: in vivo
# Mus musculus [41] = experiment: Hepatoprotective activity in ConA-induced BALB/c hepatitis mouse model assessed as decrease in serum aspartate aminotransferase level at 50 mg/kg, ip administration and measured after 8 hrs relative to control; type: functional, organism-based
# Mus musculus [42] = experiment: Immunosuppressive activity in MOG (35 to 55 residues) toxin-induced experimental autoimmune encephalomyelitis C57BL/6 mouse model assessed decrease in polymorphonuclear leukocytes infiltration into spinal cored at 50 mg/kg, ip relative to untreated control; type: functional, organism-based
# Mus musculus [43] = experiment: Immunosuppressive activity in MOG (35 to 55 residues) toxin-induced experimental autoimmune encephalomyelitis C57BL/6 mouse model assessed reduction in disease onset at 50 mg/kg, ip; type: functional, organism-based
# [44] = Drug uptake in C57BL/6 mouse brain at 50 mg/kg, ip measured up to 60 mins; type: ADME, organism-based; conditions: read-out: Drug uptake
# 3',5'-cyclic-AMP phosphodiesterase 4B, sequence (Q07343 whole entry): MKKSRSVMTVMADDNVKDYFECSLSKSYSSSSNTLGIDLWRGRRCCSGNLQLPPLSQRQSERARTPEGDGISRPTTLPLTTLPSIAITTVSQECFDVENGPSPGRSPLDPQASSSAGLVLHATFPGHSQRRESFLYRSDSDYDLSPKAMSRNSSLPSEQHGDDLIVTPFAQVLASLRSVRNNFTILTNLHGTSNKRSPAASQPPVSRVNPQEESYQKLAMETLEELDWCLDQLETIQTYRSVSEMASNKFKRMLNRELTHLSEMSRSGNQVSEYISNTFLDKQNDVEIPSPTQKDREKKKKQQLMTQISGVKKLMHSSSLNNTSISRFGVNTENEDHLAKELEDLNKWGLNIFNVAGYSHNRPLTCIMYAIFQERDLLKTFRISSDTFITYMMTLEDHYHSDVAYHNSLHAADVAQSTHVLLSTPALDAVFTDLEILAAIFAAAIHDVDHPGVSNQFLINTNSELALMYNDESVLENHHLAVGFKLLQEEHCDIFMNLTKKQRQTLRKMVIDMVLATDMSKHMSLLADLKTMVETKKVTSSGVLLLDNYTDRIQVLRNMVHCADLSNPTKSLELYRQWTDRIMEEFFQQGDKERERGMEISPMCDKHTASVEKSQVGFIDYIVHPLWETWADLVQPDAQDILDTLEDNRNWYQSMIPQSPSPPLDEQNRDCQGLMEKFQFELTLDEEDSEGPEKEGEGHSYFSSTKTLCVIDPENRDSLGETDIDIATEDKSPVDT
# High affinity 3',5'-cyclic-AMP phosphodiesterase 7A, sequence (Q13946 whole entry): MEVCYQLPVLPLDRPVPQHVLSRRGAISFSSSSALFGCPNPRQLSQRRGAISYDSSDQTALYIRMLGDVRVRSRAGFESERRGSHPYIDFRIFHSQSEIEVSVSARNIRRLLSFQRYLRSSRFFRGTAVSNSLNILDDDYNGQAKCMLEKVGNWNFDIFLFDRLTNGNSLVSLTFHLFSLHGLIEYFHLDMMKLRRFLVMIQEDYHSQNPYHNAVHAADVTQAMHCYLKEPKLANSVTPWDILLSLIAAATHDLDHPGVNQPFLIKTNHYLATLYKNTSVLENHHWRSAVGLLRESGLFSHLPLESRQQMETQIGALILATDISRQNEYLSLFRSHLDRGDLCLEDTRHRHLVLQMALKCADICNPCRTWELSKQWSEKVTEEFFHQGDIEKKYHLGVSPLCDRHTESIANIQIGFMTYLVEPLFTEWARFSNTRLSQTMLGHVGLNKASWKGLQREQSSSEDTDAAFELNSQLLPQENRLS
# Dual specificity calcium/calmodulin-dependent 3',5'-cyclic nucleotide phosphodiesterase 1B, sequence (Q01064 whole entry): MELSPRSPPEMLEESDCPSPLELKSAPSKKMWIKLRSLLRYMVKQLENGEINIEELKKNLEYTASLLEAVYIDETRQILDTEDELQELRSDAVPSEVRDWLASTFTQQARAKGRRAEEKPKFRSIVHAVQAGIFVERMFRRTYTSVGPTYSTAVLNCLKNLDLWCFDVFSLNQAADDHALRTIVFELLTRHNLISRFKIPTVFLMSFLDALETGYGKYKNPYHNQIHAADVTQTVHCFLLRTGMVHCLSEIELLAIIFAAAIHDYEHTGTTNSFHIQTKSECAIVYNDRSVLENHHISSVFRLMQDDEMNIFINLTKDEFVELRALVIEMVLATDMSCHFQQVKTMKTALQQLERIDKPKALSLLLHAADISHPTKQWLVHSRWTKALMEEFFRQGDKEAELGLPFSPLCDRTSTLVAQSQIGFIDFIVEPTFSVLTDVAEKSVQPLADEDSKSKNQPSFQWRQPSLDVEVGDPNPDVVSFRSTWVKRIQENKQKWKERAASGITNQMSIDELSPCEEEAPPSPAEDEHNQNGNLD
# 3',5'-cyclic-AMP phosphodiesterase 4D, sequence (Q08499 whole entry): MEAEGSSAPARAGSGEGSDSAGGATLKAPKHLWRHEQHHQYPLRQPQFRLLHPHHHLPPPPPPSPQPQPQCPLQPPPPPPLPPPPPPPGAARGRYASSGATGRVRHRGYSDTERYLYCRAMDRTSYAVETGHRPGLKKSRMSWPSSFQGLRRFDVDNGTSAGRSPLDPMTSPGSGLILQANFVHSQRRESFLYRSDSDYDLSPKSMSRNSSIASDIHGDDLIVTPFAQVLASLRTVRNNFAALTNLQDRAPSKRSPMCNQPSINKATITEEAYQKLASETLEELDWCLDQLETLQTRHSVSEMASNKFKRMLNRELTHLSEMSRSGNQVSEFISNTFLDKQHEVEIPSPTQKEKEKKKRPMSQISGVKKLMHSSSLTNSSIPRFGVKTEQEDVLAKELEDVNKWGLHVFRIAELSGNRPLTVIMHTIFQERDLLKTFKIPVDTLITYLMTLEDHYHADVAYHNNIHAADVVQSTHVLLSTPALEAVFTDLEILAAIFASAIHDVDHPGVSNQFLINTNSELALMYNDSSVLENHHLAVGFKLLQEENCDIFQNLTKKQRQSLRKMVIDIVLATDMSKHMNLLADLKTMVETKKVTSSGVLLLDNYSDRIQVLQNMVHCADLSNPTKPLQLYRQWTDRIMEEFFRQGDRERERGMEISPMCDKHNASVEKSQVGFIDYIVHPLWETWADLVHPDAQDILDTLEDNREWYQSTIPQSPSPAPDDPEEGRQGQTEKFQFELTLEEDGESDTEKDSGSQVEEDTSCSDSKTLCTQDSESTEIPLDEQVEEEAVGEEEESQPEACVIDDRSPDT
# cGMP-dependent 3',5'-cyclic phosphodiesterase, sequence (O00408 whole entry): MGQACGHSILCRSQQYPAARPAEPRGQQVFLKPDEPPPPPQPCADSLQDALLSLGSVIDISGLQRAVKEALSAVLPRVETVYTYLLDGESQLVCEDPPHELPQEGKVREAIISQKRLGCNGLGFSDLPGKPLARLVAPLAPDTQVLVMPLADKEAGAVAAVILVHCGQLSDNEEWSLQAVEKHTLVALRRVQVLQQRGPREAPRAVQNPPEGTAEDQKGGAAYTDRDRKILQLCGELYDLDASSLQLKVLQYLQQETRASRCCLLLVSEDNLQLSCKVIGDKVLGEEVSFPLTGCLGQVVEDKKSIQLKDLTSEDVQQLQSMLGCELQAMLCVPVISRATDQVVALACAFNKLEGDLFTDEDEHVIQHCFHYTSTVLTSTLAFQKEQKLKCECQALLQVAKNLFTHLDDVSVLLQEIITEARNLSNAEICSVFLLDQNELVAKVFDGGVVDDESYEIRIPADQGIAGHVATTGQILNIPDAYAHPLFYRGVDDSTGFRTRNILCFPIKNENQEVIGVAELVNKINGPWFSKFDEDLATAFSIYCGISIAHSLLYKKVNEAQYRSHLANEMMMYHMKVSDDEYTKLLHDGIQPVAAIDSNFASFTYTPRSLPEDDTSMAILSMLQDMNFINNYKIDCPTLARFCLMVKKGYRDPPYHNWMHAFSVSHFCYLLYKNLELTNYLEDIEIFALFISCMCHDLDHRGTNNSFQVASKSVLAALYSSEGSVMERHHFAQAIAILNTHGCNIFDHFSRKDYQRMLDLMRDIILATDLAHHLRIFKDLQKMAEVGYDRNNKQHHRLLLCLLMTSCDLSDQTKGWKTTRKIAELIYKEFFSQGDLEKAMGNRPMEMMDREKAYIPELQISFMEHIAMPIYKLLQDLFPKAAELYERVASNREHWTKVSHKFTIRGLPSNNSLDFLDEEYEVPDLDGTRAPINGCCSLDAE
# cAMP and cAMP-inhibited cGMP 3',5'-cyclic phosphodiesterase 10A, sequence (Q9Y233 whole entry): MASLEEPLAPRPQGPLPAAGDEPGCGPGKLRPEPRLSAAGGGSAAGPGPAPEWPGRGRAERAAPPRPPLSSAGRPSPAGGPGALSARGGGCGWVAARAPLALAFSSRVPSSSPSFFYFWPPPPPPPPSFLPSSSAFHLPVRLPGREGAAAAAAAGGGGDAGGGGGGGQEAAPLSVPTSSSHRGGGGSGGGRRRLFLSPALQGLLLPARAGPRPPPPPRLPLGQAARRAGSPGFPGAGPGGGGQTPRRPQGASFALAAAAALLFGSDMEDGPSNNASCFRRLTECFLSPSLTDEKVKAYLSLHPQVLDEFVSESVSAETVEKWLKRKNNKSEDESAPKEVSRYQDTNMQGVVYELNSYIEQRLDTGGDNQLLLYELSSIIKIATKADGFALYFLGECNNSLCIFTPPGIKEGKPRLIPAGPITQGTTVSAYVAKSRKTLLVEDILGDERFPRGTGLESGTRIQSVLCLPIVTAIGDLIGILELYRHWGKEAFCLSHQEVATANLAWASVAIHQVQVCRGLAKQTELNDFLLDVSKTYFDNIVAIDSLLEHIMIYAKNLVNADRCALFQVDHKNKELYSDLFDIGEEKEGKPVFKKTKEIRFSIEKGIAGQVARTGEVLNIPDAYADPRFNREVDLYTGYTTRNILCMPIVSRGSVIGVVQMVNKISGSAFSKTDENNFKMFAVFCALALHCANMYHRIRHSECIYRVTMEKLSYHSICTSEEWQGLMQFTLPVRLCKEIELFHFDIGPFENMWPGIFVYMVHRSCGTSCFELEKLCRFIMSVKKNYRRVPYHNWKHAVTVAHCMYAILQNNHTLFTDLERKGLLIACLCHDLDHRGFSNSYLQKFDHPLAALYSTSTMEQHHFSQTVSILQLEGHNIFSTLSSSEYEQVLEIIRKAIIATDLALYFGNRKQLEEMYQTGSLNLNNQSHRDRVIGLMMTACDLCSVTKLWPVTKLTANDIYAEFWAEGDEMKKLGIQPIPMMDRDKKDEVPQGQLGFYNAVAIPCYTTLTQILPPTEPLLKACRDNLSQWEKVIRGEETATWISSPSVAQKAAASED
smiles,measurement,setting,value
Nc1ccnc2c1nc(-c1ccccc1)n2CCN1CCCCC1,IC50,[1],> 200 µM
same,IC50,[2],103 µM
Nc1ccnc2c1nc(-c1ccccc1)n2CCCO,IC50,[1],> 200 µM
same,IC50,[2],100 µM
CCCCCn1c(-c2ccco2)nc2c(NCc3ccccc3)ccnc21,IC50,[1],> 200 µM
same,IC50,[2],8.66 µM
Nc1nc(O)c2nc(Br)n(C3CCCc4cccc(Br)c43)c2n1 (configuration not stated),IC50,[1],1.31 µM
CNc1nc(C(F)(F)F)nc2c1ncn2Cc1ccccc1F,IC50,[2],0.042 µM
COCCCNc1nccc2c1nc(-c1ccco1)n2C1CCCC1,IC50,[1],142 µM
same,IC50,[2],19.9 µM
Cc1ccc([N+](=O)[O-])cc1S(=O)(=O)N(C)C,IC50,[1],2.32 µM
CCOC(=O)C1=C[C@]2(CC)CCCN3CCc4c(n1c1ccccc41)[C@@H]32 [VINPOCETINE],IC50,[3],7.99 µM
CCCCCn1c(-c2ccco2)nc2c(NCc3ccccc3)nccc21,IC50,[1],> 200 µM
same,IC50,[2],8.34 µM
COCCCNc1ccnc2c1nc(-c1ccco1)n2C1CCCC1,IC50,[1],90.5 µM
same,IC50,[2],8.6 µM
CCCCCn1c(-c2ccco2)nc2c(NCCOC)ccnc21,IC50,[1],> 200 µM
same,IC50,[2],9.77 µM
COCCNc1nccc2c1nc(-c1ccco1)n2C1CCCC1,IC50,[1],192 µM
same,IC50,[2],18.1 µM
c1coc(-c2nc3c(NCCc4cccs4)ccnc3n2C2CCCC2)c1,IC50,[1],> 200 µM
same,IC50,[2],3.25 µM
OCCCNc1ccnc2c1nc(-c1ccco1)n2C1CCCC1,Kp at 5 min,[4],2.96
same,Activity,Mus musculus [5],Active
same,IC50,[1],88 µM
same,Tmax,[6],15 min
same,Activity,Mus musculus [7],Active
same,IC50,[8],5.75 µM
same,IC50,[3],8.45 µM
same,IC50,[9],2.71 µM
same,AUC,[10],1230 ng·h/mL
same,Activity,Mus musculus [11],Active
same,Activity,Rattus norvegicus [12],Active
same,half-life,[13],30 min
same,Activity,Rattus norvegicus [14],51%
same,IC50,[2],2.53 µM
same,Vd/F,[15],3.92 L/kg
same,Activity,Mus musculus [16],Active
same,Tmax,[17],0 h
same,Kp at 1 h,[18],4.34
same,IC50,[19],47.3 µM
same,Cmax,[20],1940 ng/mL
same,CL/F,[21],140 mL/min/kg
same,Activity,Mus musculus [22],Active
same,half-life,[23],19.5 min
same,Activity,Rattus norvegicus [24],44%
same,Cmax,[25],10600 ng/mL
same,Activity,Mus musculus [26],Active
same,Activity,Mus musculus [27],Active
same,Ratio IC50,[28],> 10
same,Activity,Rattus norvegicus [29],49%
same,Activity,Mus musculus [30],Active
same,Activity,Mus musculus [31],Active
same,Vz/F,[32],1.85 L/kg
same,Ratio IC50,[33],> 10
same,half-life,[34],20.1 min
same,IC50,[35],35.6 µM
same,AUC,[36],2530 ng·h/mL
same,Activity,Mus musculus [37],Active
same,Kp at […],[38],5.87
same,IC50,[39],40.7 µM
same,clearance,[40],70 mL/min/kg
same,Activity,Mus musculus [41],Active
same,Activity,Mus musculus [42],Active
same,Activity,Mus musculus [43],Active
same,concentration at 1 h,[44],≥ 830 ng/mL
CCCCCn1c(-c2ccccc2)nc2c(NCCc3cccs3)ccnc21,IC50,[1],> 200 µM
same,IC50,[2],7.09 µM
CCCCCn1c(-c2ccccc2)nc2c(NCCc3cccs3)nccc21,IC50,[1],> 200 µM
same,IC50,[2],15.6 µM
CCCCCn1c(-c2ccccc2)nc2c(NCc3ccccc3)nccc21,IC50,[1],> 200 µM
same,IC50,[2],102 µM
